In brackets after ≈: the same amount, converted by molar mass.
Columns and labels:
Format in all cases: physicochemical
[1] = Solubility test of crystal form (room temperature); conditions: thermodynamic from solid
Experimental: About 5 mg of the crystal form sample was weighed and placed in an 8 mL glass bottle, and solvent was gradually added at room temperature. 10 μL of solvent was added each time until all solids were dissolved, and if 5 mL of solvent was added and the solids were not dissolved, the solvent addition was stopped.

[2] = Stability Test 1 (80° C., lighting, 25° C./60% RH, 40° C./75% RH; HPLC)
Experimental: • Chromatographic conditions: • Chromatographic column: C18 column; • Running time: 60 min; • UV detector: 210 nm; • Flow rate: 1.0 mL/min; • Injection volume: 5 μL.
A certain amount of crystals and amorphous raw materials were weighed and placed in liquid phase vials, and a total of 5 parts were prepared. The 5 parts were respectively placed under 80° C. (opened), 25° C./60% RH (opened), and 40° C./75% RH (opened) and in a stable lighting chamber (closed, 5000±500 Lx), and the stability under lighting for 10 days, 80° C. 1 day, and the chemical stability under 25° C. and 60% RH and under 40° C. and 75% RH for 1 week were determined by liquid phase, and the XRPD of the solid was determined.

[3] = Dynamic vapor sorption (DVS) hygroscopicity
Experimental: The sample was analyzed through Intrinsic DVS ([…]). The amount of test sample was about 20-30 mg. The temperature of a test room was controlled between 25±1° C., the relative humidity increased from 0% to 90% and then decreased to 0% at a rate of 10%/h, and mass data was recorded every 20 s.
The DVS curve was acquired from DVS Intrinsic through an SMS (Surface Measurement Systems). The relative humidity at 25° C. was calibrated according to deliquescent points of LiCl, Mg(NO3)2 and KCl.

[4] = Long-term stability test, packaged crystal form (Table 7); conditions: 30±2° C./65±5% RH
Description: (§1) Packaging requirements: it is needed to simulate commercially available packaging for the stability sample, the two inner layers are inner flat-bottom bags made of pharmaceutical polyethylene, the first layer of inner bag is tied and sealed, the second layer of inner bag is subjected to heat sealing, an aluminum foil bag at an outer layer is subjected to heat sealing, a package of desiccant is placed between the aluminum foil bag and the second layer of inner bag, and the package is placed in a fiber can.
The sample was taken in the 0th, 3rd and 6th months. The test items, test methods and technical requirements are detailed in Table 7, and the test results are compared with those in the 0th month.

[5] = Accelerated stability test, packaged crystal form (Table 6); conditions: 40 ± 2° C./75 ± 5% RH
Description: as §1
The sample was taken in the 0th, 1st, 2nd, 3rd and 6th months. The test items, test methods and technical requirements are detailed in Table 6, and the test results are compared with those in the 0th month.

[6] = Accelerated stability test of crystal form (Example 3, 40±2° C./75±5% RH)
Experimental: The sample was taken at 0th, 1st and 3rd month for analysis, the stability of the samples was determined by liquid phase, and the crystal form was determined by XRPD.

[7] = 25° C., 60% RH (opened), 1 week
[8] = 40° C., 75% RH (opened), 1 week
[9] = Lighting (closed, 5000±500 Lx), 10 Days

Compound: CC(C)C(=O)O[C@@H](C)OC(=O)NC(C)(C)C(=O)N[C@H](COCc1ccccc1)C(=O)N1CCC2(CC1)CN(S(C)(=O)=O)c1ccccc12 [crystal form, (4R,11R)-7,7-dimethyl-4-(1-(methylsulfonyl)spiro[indoldoline-3,4′-piperidine]-1′-carbonyl)-6,9-dioxo-1-phenyl-2,10-dioxa-5,8-diazadodecane-11-ylisobutyrate]
- solubility ([1]; organic solvent or mixture, Acetone): ~117 mg/mL (≈ 170 mM)
- solubility ([1]; organic solvent or mixture, Acetonitrile): ~128 mg/mL (≈ 186 mM)
- solubility ([1]; organic solvent or mixture, Dichloromethane): ~251 mg/mL (≈ 365 mM)
- solubility ([1]; organic solvent or mixture, Ethanol): ~20.9 mg/mL (≈ 30.4 mM)
- solubility ([1]; organic solvent or mixture, Ethyl acetate): ~133 mg/mL (≈ 193 mM)
- solubility ([1]; organic solvent or mixture, Methyl tert-butyl ether): ~0.7 mg/mL (≈ 1.02 mM)
- solubility ([1]; organic solvent or mixture, N-heptane): < 0.6 mg/mL
- solubility ([1]; organic solvent or mixture, Tetrahydrofuran): ~232 mg/mL (≈ 339 mM)
- solubility ([1]; organic solvent or mixture, Toluene): ~13.2 mg/mL (≈ 19.2 mM)
- solubility ([1]; Water): < 0.7 mg/mL
- Degradation (%) [2, 7]: 0.02%
- Purity (%) [2, 7]: 99.69%
- Degradation (%) [2, 8]: 0.1%
- Purity (%) [2, 8]: 99.61%
- Degradation (%) ([2]; 80° C. (opened), 1 Day): 0.12%
- Purity (%) ([2]; 80° C. (opened), 1 Day): 99.59%
- Purity (%) ([2]; Initial): 99.71%
- Degradation (%) [2, 9]: 0.35%
- Purity (%) [2, 9]: 99.36%
- Moisture adsorption (DVS) ([3]; 25° C./80% RH): 0.10%
- Hygroscopicity (DVS) ([3]; 80% humidity, 25° C.): almost had no hygroscopicity
- Solid form by XRPD before and after DVS test ([3]; XRPD before vs after DVS): the crystal form did not vary
- Characters ([4]; 0th month): White powder
- Conclusion ([4]; 0th month): Qualified
- Content (anhydrous and insoluble residue)/HPLC ([4]; 0th month): 99.4%
- Isomer/HPLC: Chiral purity ([4]; 0th month): 100.0%
- Isomer/HPLC: Isomer 1 ([4]; 0th month): 0.05%
- Moisture ([4]; 0th month): 0.2%
- Related substance/HPLC: Impurity 3 ([4]; 0th month): <0.05%
- Related substance/HPLC: Other impurities ([4]; 0th month): 0.05%
- Related substance/HPLC: Total impurities ([4]; 0th month): 0.05%
- Characters ([4]; 3rd month): White powder
- Conclusion ([4]; 3rd month): Qualified
- Content (anhydrous and insoluble residue)/HPLC ([4]; 3rd month): 99.9%
- Isomer/HPLC: Chiral purity ([4]; 3rd month): 99.9%
- Isomer/HPLC: Isomer 1 ([4]; 3rd month): 0.06%
- Moisture ([4]; 3rd month): 0.1%
- Related substance/HPLC: Impurity 3 ([4]; 3rd month): <0.05%
- Related substance/HPLC: Other impurities ([4]; 3rd month): 0.05%
- Related substance/HPLC: Total impurities ([4]; 3rd month): 0.05%
- Stability under the long-term condition ([4]; 6 months vs 0th month): stable
- Characters ([4]; 6th month): White powder
- Conclusion ([4]; 6th month): Qualified
- Content (anhydrous and insoluble residue)/HPLC ([4]; 6th month): 99.6%
- Isomer/HPLC: Chiral purity ([4]; 6th month): 100.0%
- Isomer/HPLC: Isomer 1 ([4]; 6th month): 0.03%
- Moisture ([4]; 6th month): 0.1%
- Related substance/HPLC: Impurity 3 ([4]; 6th month): <0.05%
- Related substance/HPLC: Other impurities ([4]; 6th month): <0.05%
- Related substance/HPLC: Total impurities ([4]; 6th month): <0.05%
- New impurity peak ([4]; 6th month vs 0th month): ≤ 0.10%
- Conclusion ([5]; 0th month): Qualified
- Content (anhydrous and insoluble residue)/HPLC ([5]; 0th month): 99.4%
- Isomer/HPLC: Chiral purity ([5]; 0th month): 100.0%
- Isomer/HPLC: Isomer 1 ([5]; 0th month): 0.05%
- Moisture ([5]; 0th month): 0.2%
- Related substances/HPLC: Impurity 3 ([5]; 0th month): <0.05%
- Related substances/HPLC: Other impurities ([5]; 0th month): 0.05%
- Related substances/HPLC: Total impurities ([5]; 0th month): 0.05%
- Conclusion ([5]; 1st month): Qualified
- Content (anhydrous and insoluble residue)/HPLC ([5]; 1st month): 99.0%
- Isomer/HPLC: Chiral purity ([5]; 1st month): 100.0%
- Isomer/HPLC: Isomer 1 ([5]; 1st month): 0.04%
- Moisture ([5]; 1st month): 0.1%
- Related substances/HPLC: Impurity 3 ([5]; 1st month): <0.05%
- Related substances/HPLC: Other impurities ([5]; 1st month): 0.05%
- Related substances/HPLC: Total impurities ([5]; 1st month): 0.05%
- Conclusion ([5]; 2nd month): Qualified
- Content (anhydrous and insoluble residue)/HPLC ([5]; 2nd month): 98.9%
- Isomer/HPLC: Chiral purity ([5]; 2nd month): 100.0%
- Isomer/HPLC: Isomer 1 ([5]; 2nd month): 0.04%
- Moisture ([5]; 2nd month): 0.2%
- Related substances/HPLC: Impurity 3 ([5]; 2nd month): <0.05%
- Related substances/HPLC: Other impurities ([5]; 2nd month): 0.05%
- Related substances/HPLC: Total impurities ([5]; 2nd month): 0.05%
- Conclusion ([5]; 3rd month): Qualified
- Content (anhydrous and insoluble residue)/HPLC ([5]; 3rd month): 98.9%
- Isomer/HPLC: Chiral purity ([5]; 3rd month): 100.0%
- Isomer/HPLC: Isomer 1 ([5]; 3rd month): 0.04%
- Moisture ([5]; 3rd month): 0.1%
- Related substances/HPLC: Impurity 3 ([5]; 3rd month): <0.05%
- Related substances/HPLC: Other impurities ([5]; 3rd month): <0.05%
- Related substances/HPLC: Total impurities ([5]; 3rd month): <0.05%
- Stability under the accelerated condition ([5]; 6 months vs 0th month): stable
- Conclusion ([5]; 6th month): Qualified
- Content (anhydrous and insoluble residue)/HPLC ([5]; 6th month): 99.5%
- Isomer/HPLC: Chiral purity ([5]; 6th month): 100.0%
- Isomer/HPLC: Isomer 1 ([5]; 6th month): 0.04%
- Moisture ([5]; 6th month): 0.1%
- Related substances/HPLC: Impurity 3 ([5]; 6th month): <0.05%
- Related substances/HPLC: Other impurities ([5]; 6th month): <0.05%
- Related substances/HPLC: Total impurities ([5]; 6th month): <0.05%
- New impurity peak ([5]; 6th month vs 0th month): ≤ 0.10%
- Total impurities (%) ([6]; 1 month): 0.07%
- Total impurities (%) ([6]; 3 months): 0.05%
- Total impurities (%) ([6]; Initial): 0.07%

— US20260226054A1, “CRYSTAL FORM AND AMORPHOUS SUBSTANCE OF INDOLINE SPIRO COMPOUND, AND PREPARATION METHOD THEREFOR AND USE THEREOF” (CHANGCHUN GENESCIENCE PHARMACEUTICAL CO., LTD., priority 2022, published 2026)
